Measured values reported in patent US10357514B2, “Treatment of cancer using anti-CD19 Chimeric Antigen Receptor” (The Trustees of the University of Pennsylvania, priority 2014, dated 2019).
Entries after “also recorded” stand apart in the source; their conditions may differ. Like-named read-outs stand apart in the source and are kept apart here.

Tests used:
[1] = cited from earlier work
[2] = system: PD-1 positive CD4 and CD8 T cells; test: Immunophenotyping of PBMC by flow cytometry; assay type: in vivo, human
[3] = system: 3 influenza vaccine strains; test: Primary endpoint: HI GMT ratio relative to placebo in at least 2 out of 3 influenza vaccine strains; assay type: in vivo, human; conditions: for primary endpoint (>=1.2-fold GMT increase relative to placebo in at least 2 of 3 strains): ITT population
From the text: The primary analysis of geometric mean titer ratios was done using a normal Bayesian regression model with non-informative priors. This model was fitted to each antibody titer on the log scale. The primary outcome in each model was the Day 84 measurement. The Day 63 measurement was included in the outcome vector. The model fitted using SAS 9.2 proc mixed with the prior statement. The covariance structure of the matrix was considered as unstructured (option type=UN). A flat prior was used. For the secondary analysis of seroconversion rates, logistic regression was used.
The intention to treat population was defined as all subjects who received at least one full dose of study drug and who had no major protocol deviations impacting efficacy data. 199 out of the total of 218 subjects enrolled in the study were in the intention to treat population.
The ability of RAD001 to improve immune function in elderly volunteers was evaluated by measuring the serologic response to the 2012 seasonal influenza vaccine. The hemagglutination inhibition (HI) geometric mean titers (GMT) to each of the 3 influenza vaccine strains at baseline and 4 weeks after influenza vaccination are provided in Table 10. The primary analysis variable was the HI GMT ratio (4 weeks post vaccination/baseline). […] This endpoint was chosen because a 1.2-fold increase in the influenza GMT ratio induced by the MF-59 vaccine adjuvant was associated with a decrease in influenza illness (Iob, A et al. (2005) Epidemiol Infect 133:687-693).
Elderly volunteers >=65 years of age were randomized to one of the 3 RAD001 treatment groups (50 subjects per arm) or placebo (20 subjects per arm). […] Response to influenza vaccination was assessed by measuring the geometric mean titers (GMTs) by hemagglutination inhibition assay to the 3 influenza strains (H1N1, H3N2 and B influenza subtypes) in the influenza vaccine 4 weeks after vaccination. […] Antibody titers to 7 of the serotypes were measured in our subjects.

[4] = Adverse event assessment in elderly volunteers, randomized placebo-controlled trial; conditions: for Treatment-related AE incidence: Blood cholesterol increased / Treatment-related AE incidence: Conjunctivitis / Treatment-related AE incidence: Diarrhea / Treatment-related AE incidence: Dry mouth / Treatment-related AE incidence: Dyspepsia / Treatment-related AE incidence: Erythema / Treatment-related AE incidence: Fatigue / Treatment-related AE incidence: Headache / Treatment-related AE incidence: Insomnia / Treatment-related AE incidence: Limb discomfort / Treatment-related AE incidence: Low density lipoprotein increased / Treatment-related AE incidence: Mouth ulceration / Treatment-related AE incidence: Mucosal inflammation / Treatment-related AE incidence: Neutropenia / Treatment-related AE incidence: Oral pain / Treatment-related AE incidence: Paresthesia oral / Treatment-related AE incidence: Pruritus / Treatment-related AE incidence: Stomatitis / Treatment-related AE incidence: Thrombocytopenia / Treatment-related AE incidence: Tongue ulceration / Treatment-related AE incidence: Urinary tract infection / Treatment-related AEs: Patients with AE(s) / Treatment-related AEs: Total AE(s): N = 53

CO[C@H]1C[C@@H]2CC[C@@H](C)[C@@](O)(O2)C(=O)C(=O)N2CCCC[C@H]2C(=O)O[C@H]([C@H](C)C[C@@H]2CC[C@@H](OCCO)[C@H](OC)C2)CC(=O)[C@H](C)/C=C(\C)[C@@H](O)[C@@H](OC)C(=O)[C@H](C)C[C@H](C)/C=C/C=C/C=C/1C [RAD001, (1R,9S,12S,15R,16E,18R,19R,21R,23S,24E,26E,28E,30S,32S,35R)-1,18-dihydroxy-12-{(1R)-2-[(1S,3R,4R)-4-(2-hydroxyethoxy)-3-methoxycyclohexyl]-1-methylethyl}-19,30-dimethoxy-15,17,21,23,29,35-hexamethyl-11,36-dioxa-4-aza-tricyclo[30.3.1.04,9]hexatriaconta-16,24,26,28-tetraene-2,3,10,14,20-pentaone]
trough level of RAD001 ([1]; 10 mg daily oncology dosing regimen): approximately 20 ng/ml | trough level of RAD001 ([1]; 0.75-1.5 mg bid transplant dosing regimen): approximately 3 ng/ml | percentage of PD-1 negative CD4 T cells compared to placebo ([2]; RAD001 cohorts): increased | percentage of CD4 PD-1 positive T cells ([2]; week 6 and 12, all RAD001 cohorts): decreased from baseline | percentage of CD8 PD-1 positive cells ([2]; week 6 and 12, two lower dose RAD001 cohorts): decreased from baseline | primary endpoint (>=1.2-fold GMT increase relative to placebo in at least 2 of 3 strains) ([3]; 0.5 mg daily or 5 mg weekly): met the GMT primary endpoint | primary endpoint (>=1.2-fold GMT increase relative to placebo in at least 2 of 3 strains) ([3]; 20 mg weekly): not higher dose (20 mg weekly) cohort met the primary endpoint; also recorded: unlike the 20 mg weekly dose, met the GMT primary endpoint | increase in titers in subgroup versus ITT population ([3]; subjects with low baseline influenza titers (<=1:40)): greater RAD001-associated increase in titers | Treatment-related AE incidence: Blood cholesterol increased ([4]; 0.5 mg daily): 2 (3.8%) n (%) | Treatment-related AE incidence: Conjunctivitis ([4]; 0.5 mg daily): 0 n (%) | Treatment-related AE incidence: Diarrhea ([4]; 0.5 mg daily): 1 (1.9%) n (%) | Treatment-related AE incidence: Dry mouth ([4]; 0.5 mg daily): 0 n (%) | Treatment-related AE incidence: Dyspepsia ([4]; 0.5 mg daily): 0 n (%) | Treatment-related AE incidence: Erythema ([4]; 0.5 mg daily): 0 n (%) | Treatment-related AE incidence: Fatigue ([4]; 0.5 mg daily): 0 n (%) | Treatment-related AE incidence: Headache ([4]; 0.5 mg daily): 0 n (%) | Treatment-related AE incidence: Insomnia ([4]; 0.5 mg daily): 1 (1.9%) n (%) | Treatment-related AE incidence: Limb discomfort ([4]; 0.5 mg daily): 0 n (%) | Treatment-related AE incidence: Low density lipoprotein increased ([4]; 0.5 mg daily): 2 (3.8%) n (%) | Treatment-related AE incidence: Mouth ulceration ([4]; 0.5 mg daily): 6 (11.3%) n (%) | Treatment-related AE incidence: Mucosal inflammation ([4]; 0.5 mg daily): 0 n (%) | Treatment-related AE incidence: Neutropenia ([4]; 0.5 mg daily): 0 n (%) | Treatment-related AE incidence: Oral pain ([4]; 0.5 mg daily): 0 n (%) | Treatment-related AE incidence: Paresthesia oral ([4]; 0.5 mg daily): 2 (3.8%) n (%) | Treatment-related AE incidence: Pruritus ([4]; 0.5 mg daily): 0 n (%) | Treatment-related AE incidence: Stomatitis ([4]; 0.5 mg daily): 0 n (%) | Treatment-related AE incidence: Thrombocytopenia ([4]; 0.5 mg daily): 0 n (%) | Treatment-related AE incidence: Tongue ulceration ([4]; 0.5 mg daily): 3 (5.7%) n (%) | Treatment-related AE incidence: Urinary tract infection ([4]; 0.5 mg daily): 0 n (%) | Treatment-related AEs: Patients with AE(s) ([4]; 0.5 mg daily): 22 (41.5%) n (%) | Treatment-related AEs: Total AE(s) ([4]; 0.5 mg daily): 35 n (%) | Treatment-related AE incidence: Blood cholesterol increased ([4]; 5 mg weekly): 2 (3.8%) n (%) | Treatment-related AE incidence: Conjunctivitis ([4]; 5 mg weekly): 2 (3.8%) n (%) | Treatment-related AE incidence: Diarrhea ([4]; 5 mg weekly): 4 (7.5%) n (%) | Treatment-related AE incidence: Dry mouth ([4]; 5 mg weekly): 0 n (%) | Treatment-related AE incidence: Dyspepsia ([4]; 5 mg weekly): 3 (5.7%) n (%) | Treatment-related AE incidence: Erythema ([4]; 5 mg weekly): 2 (3.8%) n (%) | Treatment-related AE incidence: Fatigue ([4]; 5 mg weekly): 2 (3.8%) n (%) | Treatment-related AE incidence: Headache ([4]; 5 mg weekly): 2 (3.8%) n (%) | Treatment-related AE incidence: Insomnia ([4]; 5 mg weekly): 2 (3.8%) n (%) | Treatment-related AE incidence: Limb discomfort ([4]; 5 mg weekly): 2 (3.8%) n (%) | Treatment-related AE incidence: Low density lipoprotein increased ([4]; 5 mg weekly): 1 (1.9%) n (%) | Treatment-related AE incidence: Mouth ulceration ([4]; 5 mg weekly): 2 (3.8%) n (%) | Treatment-related AE incidence: Mucosal inflammation ([4]; 5 mg weekly): 0 n (%) | Treatment-related AE incidence: Neutropenia ([4]; 5 mg weekly): 0 n (%) | Treatment-related AE incidence: Oral pain ([4]; 5 mg weekly): 2 (3.8%) n (%) | Treatment-related AE incidence: Paresthesia oral ([4]; 5 mg weekly): 0 n (%) | Treatment-related AE incidence: Pruritus ([4]; 5 mg weekly): 2 (3.8%) n (%) | Treatment-related AE incidence: Stomatitis ([4]; 5 mg weekly): 0 n (%) | Treatment-related AE incidence: Thrombocytopenia ([4]; 5 mg weekly): 0 n (%) | Treatment-related AE incidence: Tongue ulceration ([4]; 5 mg weekly): 1 (1.9%) n (%) | Treatment-related AE incidence: Urinary tract infection ([4]; 5 mg weekly): 0 n (%) | Treatment-related AEs: Patients with AE(s) ([4]; 5 mg weekly): 20 (37.7%) n (%) | Treatment-related AEs: Total AE(s) ([4]; 5 mg weekly): 46 n (%) | Treatment-related AE incidence: Blood cholesterol increased ([4]; 20 mg weekly): 2 (3.8%) n (%) | Treatment-related AE incidence: Conjunctivitis ([4]; 20 mg weekly): 0 n (%) | Treatment-related AE incidence: Diarrhea ([4]; 20 mg weekly): 1 (1.9%) n (%) | Treatment-related AE incidence: Dry mouth ([4]; 20 mg weekly): 2 (3.8%) n (%) | Treatment-related AE incidence: Dyspepsia ([4]; 20 mg weekly): 2 (3.8%) n (%) | Treatment-related AE incidence: Erythema ([4]; 20 mg weekly): 0 n (%) | Treatment-related AE incidence: Fatigue ([4]; 20 mg weekly): 4 (7.5%) n (%) | Treatment-related AE incidence: Headache ([4]; 20 mg weekly): 9 (17.0%) n (%) | Treatment-related AE incidence: Insomnia ([4]; 20 mg weekly): 1 (1.9%) n (%) | Treatment-related AE incidence: Limb discomfort ([4]; 20 mg weekly): 0 n (%) | Treatment-related AE incidence: Low density lipoprotein increased ([4]; 20 mg weekly): 2 (3.8%) n (%) | Treatment-related AE incidence: Mouth ulceration ([4]; 20 mg weekly): 9 (17.0%) n (%) | Treatment-related AE incidence: Mucosal inflammation ([4]; 20 mg weekly): 2 (3.8%) n (%) | Treatment-related AE incidence: Neutropenia ([4]; 20 mg weekly): 3 (5.7%) n (%) | Treatment-related AE incidence: Oral pain ([4]; 20 mg weekly): 1 (1.9%) n (%) | Treatment-related AE incidence: Paresthesia oral ([4]; 20 mg weekly): 0 n (%) | Treatment-related AE incidence: Pruritus ([4]; 20 mg weekly): 1 (1.9%) n (%) | Treatment-related AE incidence: Stomatitis ([4]; 20 mg weekly): 2 (3.8%) n (%) | Treatment-related AE incidence: Thrombocytopenia ([4]; 20 mg weekly): 2 (3.8%) n (%) | Treatment-related AE incidence: Tongue ulceration ([4]; 20 mg weekly): 0 n (%) | Treatment-related AE incidence: Urinary tract infection ([4]; 20 mg weekly): 2 (3.8%) n (%) | Treatment-related AEs: Patients with AE(s) ([4]; 20 mg weekly): 27 (50.9%) n (%) | Treatment-related AEs: Total AE(s) ([4]; 20 mg weekly): 109 n (%) | tolerability ([4]; 6 weeks, particularly the 0.5 mg daily and 5 mg weekly dosing regimens): well tolerated | deaths during the study ([4]; all cohorts): No deaths | severe AEs assessed as related to RAD001 ([4]; mouth ulcers, subject treated with 20 mg weekly): one
